Data on twelve compounds can be found in patent US9266832B2, “Compounds for the treatment of neurodegenerative diseases” (Katholieke Universiteit Levun, priority 2010, dated 2016).

In the assay the test system is M17-TAU P301L cells. The assay can be described thus: Tau-induced toxicity experiment: LDH leakage of retinoic acid incubated M17-TAU P301L cells. The class given is cell-based. The following applies: Homo sapiens, Neuroblastoma cell, 168 h; reduction of LDH activity of retinoic acid incubated M17-TAU P301L neuroblastoma cells, 7 days. The source says:
A TAU expression plasmid was constructed by sub-cloning the cDNA of human TAU-P301L (encoding for TAU with proline 301 substituted by a leucine residue) into mammalian expression vector pcDNA3.1 resulting in plasmid pcDNA3.1-TAU P301L. Plasmids pcDNA3.1 and pcDNA3.1-TAU P301L were transfected to human neuroblastoma cells ([…]; ATCC No. CRL-2267) and independent clonal lines with the plasmids stably integrated into the genome were selected. […] Expression of the TAU P301L genes in the cell lines was confirmed by Western analysis.
In degenerated or dead cells lactate dehydrogenase (LDH) is leaked out of the cells into the extracellular environment due to a loss of plasma-membrane integrity. This principle was used to determine cytotoxicity by quantifying the level of leaked LDH into the growth medium.
The detailed method for determining TAU cytotoxicity was as follows: From appropriate precultures of M17-3.1 and M17-TAU(P301L) cells were seeded at 2500 cells/cm2 in Optimem Reduced Serum without phenol red (Gibco, Cat. 31985-047) supplemented with 1% fetal calf serum, 1 mM sodium pyruvate, 1× non-essential amino acids, 500 μg/ml G418 0.5× antibiotic/antimycotic. After 3 h of incubation at 37° C./5% CO2 1 volume of Optimem Reduced Serum (same as described above; except without fetal calf serum) supplemented with 2.5 μM retinoic acid (RA) was added. The cells were further incubated for 7 days. Subsequently, LDH activity was determined using Promega Cytotox 96 Non-Radioactive cytotoxicity assay, (Cat. G1780) according the supplier's instructions.
The M17-TAU P301L cell line made it possible to assess the ability of novel compounds to counteract TAU cytotoxicity. […] These measurements were used to calculate EC50 values of table 2.

In general, EC50 refers to the concentration at which the effect is half-maximal. Low values mean an effect from little substance, high ones a need for much substance.

Regarding `Cc1ccc(Cc2ccc(C(=O)NCCc3c[nH]c4ccc(Cl)cc34)cc2)cc1` [Cpd033, N-(2-(5-chloro-1H-indol-3-yl)ethyl)-4-(4-methylbenzyl)benzamide], the concentration giving a half-maximal response (EC50) was 31 nM.

The compound `Cc1ccc(Cc2cccc(C(=O)NCCc3c[nH]c4ccc(Cl)cc34)c2)cc1` [Cpd034, N-(2-(5-chloro-1H-indol-3-yl)ethyl)-3-(4-methylbenzyl)benzamide] gave a concentration for a half-maximal effect (EC50) of 62 nM.

In turn, `N#Cc1cccc(Cc2ccc(C(=O)NCc3c[nH]c4ccc(Cl)cc34)cc2)c1` [Cpd072, N-((5-chloro-1H-indol-3-yl)methyl)-4-(3-cyanobenzyl)benzamide] displayed a half-maximal effective concentration (EC50) of 132 nM.

In turn, `O=C(NCCc1c[nH]c2ccc(Cl)cc12)c1ccc(Cc2ccc(Cl)cc2)cc1` [Cpd045, N-(2-(5-chloro-1H-indol-3-yl)ethyl)-4-(4-chlorobenzyl)benzamide] gave a 50% effective concentration (EC50) of 22 nM.

The compound `O=C(NCCc1c[nH]c2ccc(Cl)cc12)c1cccc(Cn2cccn2)c1` [Cpd006, 3-((1H-pyrazol-1-yl)methyl)-N-(2-(5-chloro-1H-indol-3-yl)ethyl)benzamide] came in with an EC50 of 256 nM.

The compound `O=C(NCCc1c[nH]c2ccc(Cl)cc12)c1ccc(CNCC2CCCCC2)cc1` [Cpd018, N-(2-(5-chloro-1H-indol-3-yl)ethyl)-4-((cyclohexylmethylamino)methyl)benzamide] yielded a concentration for a half-maximal effect (EC50) of 168 nM.

For `O=C(NCc1c[nH]c2ccc(Cl)cc12)c1ccc(Cc2cccc(F)c2)cc1` [Cpd071, N-((5-chloro-1H-indol-3-yl)methyl)-4-(3-fluorobenzyl)benzamide], the EC50 came to 277 nM.

`O=C(NCCc1c[nH]c2ccc(Cl)cc12)c1cccc(CNCc2cccs2)c1` [Cpd022, N-(2-(5-chloro-1H-indol-3-yl)ethyl)-3-((thiophen-2-ylmethylamino)methyl)benzamide]: the EC50 worked out at 159 nM.

On to `O=C(NCCc1c[nH]c2ccc(Cl)cc12)c1cccc(Cc2ccc(Cl)cc2)c1` [Cpd050, N-(2-(5-chloro-1H-indol-3-yl)ethyl)-3-(4-chlorobenzyl)benzamide], for which the EC50 stood at 50 nM.

For `O=C(NCCc1c[nH]c2ccc(Cl)cc12)c1ccc(Cc2ccc(C(F)(F)F)cc2)cc1` [Cpd039, N-(2-(5-chloro-1H-indol-3-yl)ethyl)-4-(4-(trifluoromethyl)benzyl)benzamide], the EC50 amounted to 22 nM.

For the compound `N#Cc1ccccc1Cc1cccc(C(=O)NCCc2c[nH]c3ccc(Cl)cc23)c1` [Cpd060, N-(2-(5-chloro-1H-indol-3-yl)ethyl)-3-(2-cyanobenzyl)benzamide], the concentration for a half-maximal effect (EC50) came out at 116 nM.

As for `O=C(NCCc1c[nH]c2ccc(Cl)cc12)c1ccc(Cc2ccccc2Cl)cc1` [Cpd047, N-(2-(5-chloro-1H-indol-3-yl)ethyl)-4-(2-chlorobenzyl)benzamide], a half-maximal effect (EC50) was put at 65 nM.
